Results as given in patent publication US4500544A, “Ascochlorin derivatives, and pharmaceutical composition containing the same” (Chugai Seiyaku Kabushiki Kaisha, priority 1981, dated 1985).

Experiments:
Type in all cases: in vivo, ddY male mice
[1] = serum lipid and glucose in normal mice fed the compounds (Example 25); conditions: for lipid level in serum (in words) / free fatty acid in serum / neutral fat in serum / total cholesterol in serum / serum glucose: 0.05% in diet, one week; for free fatty acid in serum / neutral fat in serum / total cholesterol in serum / serum glucose: n=8; for free fatty acid in serum: control 25.3 ± 1.62; for neutral fat in serum: control 134.7 ± 8.6; for total cholesterol in serum: control 135.9 ± 4.8; for serum glucose: control 293.0 ± 13.3; for free fatty acid in serum, change / neutral fat in serum, change / serum glucose, change / total cholesterol in serum, change: vs control
Description: Five-week-old ddY male mice were given for one week a diet (CE-2 from Nippon Crea Co., Ltd.) containing 0.05% of the compounds of the present invention indicated in Table 7. On the 7th day, the mice were sacrificed and the levels of lipid and glucose in their serum were measured.

[2] = plasma glucose and cholesterol in normal mice fed the compounds (Example 19); conditions: 0.1% in diet, one week, n=10; for total cholesterol in plasma: control 135.9 ± 4.8; for plasma glucose: control 271.6 ± 0.4
Description: Five-week-old ddY male mice (n=10) were given for one week a diet (CE-2 from Nippon Crea Co., Ltd.) containing 0.1% of the sample compounds of the present invention indicated in Table 1. Blood was then withdrawn from the heart and the glucose and cholesterol levels in plasma were measured.

Ehrlich ascites tumor = test: life span of mice with Ehrlich ascites tumor (Example 22); conditions: 2 mg i.p. once a day for 7 days; for Days survived: n=8, control 15.5 ± 2.12; for T/0 (%): control 100
Description: 10^6 Cells of Ehrlich ascites tumor were transplanted in five-week-old ddY male mice and from the 24th hour onward, they were injected intraperitoneally the compounds indicated in Table 4 of the present invention once a day for 7 consecutive days. Each injection contained 2 mg of the test compounds. The efficacy of the compounds is indicated in Table 4 in terms of their life span.

[3] = system: streptozotocin diabetic ddY mice; test: streptozotocin-diabetic mice, diet with 0.1% compound (Example 21)
Description: Five-week-old ddY male mice were injected intraperitoneally with 130 mg/kg of streptozotocin. […] Each group was allowed to take the diet and drink water freely. One week later, the levels of glucose, insulin, free fatty acid in serum and glycogen in liver were measured.

| SMILES | free fatty acid in serum [1] | neutral fat in serum [1] | total cholesterol in serum [1] | serum glucose [1] | free fatty acid in serum, change [1] | neutral fat in serum, change [1] | serum glucose, change [1] | total cholesterol in serum, change [1] | total cholesterol in plasma [2] | plasma glucose [2] | Days survived (Ehrlich ascites tumor) | T/0 (%) (Ehrlich ascites tumor) | further results |
| --- | --- | --- | --- | --- | --- | --- | --- | --- | --- | --- | --- | --- | --- |
| CC(/C=C/C1(C)C(C)CCC(=O)C1C)=C\Cc1c(O)c(C=O)c(C)c(Cl)c1OC(=O)COc1ccc(Cl)cc1 (centres unmarked) [Example 14, 4-O-(p-chlorophenoxy)acetyl ascochlorin] | 24.9 ± 0.48 mg/dL | 99.4 ± 9.4 mg/dL | 115.6 ± 9.8 mg/dL | 209 ± 8.9 mg/dL | -1.6% | -26.2% | -28.7% | -14.8% | – | – | – | – | lipid level in serum (in words) [1]: could also reduce the lipid level in serum |
| CCN(CC)C(=O)Oc1c(Cl)c(C)c(C=O)c(O)c1C/C=C(C)/C=C/C1(C)C(C)CCC(=O)C1C (centres unmarked) [Example 13, 4-O--diethylcarbamoyl ascochlorin] | 26.4 ± 0.58 mg/dL | 110.2 ± 16.4 mg/dL | 121.2 ± 5.0 mg/dL | 215.2 ± 5.7 mg/dL | +4.3% | -18.2% | -26.6% | -10.8% | – | – | – | – | – |
| CC(/C=C/C1(C)C(C)CCC(=O)C1C)=C\Cc1c(O)c(C=O)c(C)c(Cl)c1OC(=O)c1ccccn1 (centres unmarked) [Example 18, 4-O--picolinyl ascochlorin] | 23.5 ± 3.13 mg/dL | 117.6 ± 6.8 mg/dL | 138.4 ± 3.1 mg/dL | 247.7 ± 9.0 mg/dL | -7.1% | -12.7% | -15.5% | +1.8% | – | – | – | – | – |
| CCOC(=O)CCCOc1c(Cl)c(C)c(C=O)c(O)c1C/C=C(C)/C=C/C1(C)C(C)CCC(=O)C1C (centres unmarked) [Example 8, 4-O-(3-ethoxycarbonyl)propyl ester of ascochlorin] | – | – | – | – | – | – | – | – | 115.0 ± 6.6 mg/dL | 255.5 ± 17.0 mg/dL | – | – | – |
| COC(=O)c1ccc(C(=O)Oc2c(Cl)c(C)c(C=O)c(O)c2C/C=C(C)/C=C/C2(C)C(C)CCC(=O)C2C)cc1 (centres unmarked) [Example 16, 4-O--(p-methoxycarbonyl)-benzoyl ascochlorin] | 21.8 ± 0.69 mg/dL | 136.3 ± 8.1 mg/dL | 129.6 ± 3.9 mg/dL | 229.9 ± 17.0 mg/dL | -15.9% | +1.2% | -21.5% | -4.6% | – | – | – | – | – |
| COc1ccc(C(=O)Oc2c(Cl)c(C)c(C=O)c(O)c2C/C=C(C)/C=C/C2(C)C(C)CCC(=O)C2C)cc1 (centres unmarked) [Example 15, 4-O--(p-methoxybenzoyl) ascochlorin] | 25.2 ± 1.89 mg/dL | 141.4 ± 21.3 mg/dL | 137.9 ± 4.1 mg/dL | 199.3 ± 8.6 mg/dL | -0.4% | +4.9% | -31.9% | +1.4% | – | – | – | – | – |
| CCOC(=O)COc1c(Cl)c(C)c(C=O)c(O)c1C/C=C(C)/C=C/C1(C)C(C)CCC(=O)C1C (centres unmarked) [Example 1, 4-O-ethoxycarbonylmethylated ascochlorin] | – | – | – | – | – | – | – | – | 105.7 ± 3.0 mg/dL | 208.3 ± 13.1 mg/dL | 19.3 ± 5.77 days | 125% | serum immunoreactive insulin ([3]; 0.1% in diet, one week, n=10, control 42.67 ± 4.61): 26.60 ± 2.78 μU/ml; serum free fatty acid ([3]; 0.1% in diet, one week, n=10, control 44.29 ± 2.05): 30.44 ± 1.22 mg/dL; serum glucose ([3]; 0.1% in diet, one week, n=10, control 337.7 ± 23.0): 250.6 ± 26.2 mg/dL; body weight after feeding ([3]; 0.1% in diet, one week, before feeding 25.5 ± 0.4, control after feeding 28.0 ± 0.5, ns): 27.0 ± 0.6 g/mouse; serum free fatty acid, change ([3]; vs control): -31.3%; serum glucose, change ([3]; vs control): -25.8%; serum immunoreactive insulin, change ([3]; vs control): -37.7% |
| CCOC(=O)C(C)Oc1c(Cl)c(C)c(C=O)c(O)c1C/C=C(C)/C=C/C1(C)C(C)CCC(=O)C1C (centres unmarked) [Example 5, 4-O-(1-ethoxycarbonylethyl) ester of ascochlorin] | – | – | – | – | – | – | – | – | 109.7 ± 5.0 mg/dL | 205.7 ± 8.2 mg/dL | > 19.1 ± 1.97 days | 123% | – |
| CC(/C=C/C1(C)C(C)CCC(=O)C1C)=C\Cc1c(O)c(C=O)c(C)c(Cl)c1OC(C)C(=O)O (centres unmarked) [Example 9] | – | – | – | – | – | – | – | – | 106.7 ± 5.5 mg/dL | 210.0 ± 10.7 mg/dL | > 28.8 ± 3.54 days | 186% | – |
| CC(/C=C/C1(C)C(C)CCC(=O)C1C)=C\Cc1c(O)c(C=O)c(C)c(Cl)c1OCCCC(=O)O (centres unmarked) [Example 10] | – | – | – | – | – | – | – | – | 115.7 ± 5.0 mg/dL | 220.1 ± 6.8 mg/dL | 19.3 ± 10.12 days | 125% | – |
| CC(/C=C/C1(C)C(C)CCC(=O)C1C)=C\Cc1c(O)c(C=O)c(C)c(Cl)c1OC(=O)c1ccncc1 (centres unmarked) [Example 17, 4-O-isonicotinoyl ascochlorin] | 20.3 ± 0.77 mg/dL | 116.1 ± 13.8 mg/dL | 113.5 ± 7.8 mg/dL | 191.6 ± 13.2 mg/dL | -19.8% | – | -34.6% | -16.5% | – | – | – | – | lipid level in serum (in words) [1]: could also reduce the lipid level in serum |
